Literature values in US20260373079A1, “USE OF LONG-ACTING FLUTICASONE PROPIONATE INJECTABLE SUSPENSIONS FOR TREATING AND PREVENTING INFLAMMATIONS OF THE GASTROINTESTINAL TRACT” (EUPRAXIA PHARMACEUTICALS INC., priority 2022, published 2026).

How the values were obtained:
[1] = for first pass metabolism, relative to fluticasone: in words
[2] = treatment of EoE; subcutaneous; weekly dosing recommended
[3] = EoE patients

C[C@]12C=CC(=O)C=C1CC[C@H]1[C@@H]3C[C@@H](O)[C@](O)(C(=O)CO)[C@@]3(C)C[C@H](O)[C@@]12F [triamcinolone]
first pass metabolism, relative to fluticasone [1]: substantially lower

C[C@H]1C[C@H]2[C@@H]3CCC4=CC(=O)C=C[C@]4(C)[C@@]3(Cl)[C@@H](O)C[C@]2(C)[C@@]1(O)C(=O)CO [beclomethasone]
first pass metabolism, relative to fluticasone [1]: substantially lower

CCC(=O)O[C@]1(C(=O)SCF)[C@H](C)C[C@H]2[C@@H]3C[C@H](F)C4=CC(=O)C=C[C@]4(C)[C@@]3(F)[C@@H](O)C[C@@]21C [fluticasone]
first-pass metabolism ([1]; by the liver): ~ 99%

Dupixent: a monoclonal antibody that is administered subcutaneously
effective in patients [2]: 60 % of patients
upper respiratory tract infections [3]: 18 % of patients
